Data as given in US11278543B2, “Inhibitors of the PP1/GADD34 complex for the treatment of a condition requiring an immunosuppressive activity” (INSERM, priority 2009, dated 2022).

Tests used:
P-eIF2-α = assay: eIF2-α phosphorylation (P-eIF2-α) immunoblot in DCs; assay type: cell-based, mouse; details: for eIF2-α phosphorylation in presence of soluble poly I:C: DCs activated with soluble poly I:C 24 h, 75 μM salubrinal for the last 4 h
Experimental: (§1) Bone marrow-derived DCs were obtained and cultured as described previously^50. NIH3T3 cells were cultured in RPMI 1640 (GIBCO) supplemented with 10% FCS (HyClone, PERBIO), 100 units/ml penicillin and 100 μg/ml streptomycin (GIBCO). Wild-type and PKR^−/− MEFs (from Caetano Reis e Sousa) were cultured in DMEM, 10% FCS, pen/strep. Wild-type and GCN2^−/− MEFs (from David Ron) were cultured in RPMI, 10% FCS, pen/strep, MEM non-essential amino acids (GIBCO), 55 μM beta-mercaptoethanol. For the tryptophan starvation experiments, MEFs and DCs were cultured for the indicated time in RPMI 1640 Tryptophan—medium (21875, GIBCO). All cells were cultured at 37° C. and 5% CO2.
(§2) MEFs, NIH3T3 and immature DCs were treated for the indicated time with 10 μg/ml poly I:C (InvivoGen), alone or in combination with lipofectamine 2000 (Invitrogen). 2 μg/ml tunicamycin (SIGMA) was added to DCs for 2 h; 2 μM MG132 (BIOMOL International) was added to DCs and NIH3T3 4 h before harvesting; 75 μM salubrinal (Calbiochem) or 100 nM tautomycin (Calbiochem) were added to DCs 4 h before harvesting; 500 μM sodium arsenite (SIGMA) was added for 30 min to DCs, NIH3T3 and MEFs; 50 μM LY294002 (Calbiochem) was added to DCs 1 h before harvesting. Immature DCs were treated for the indicated time with 100 ng/ml LPS (SIGMA).
(§3) Cells were lysed in 1% Triton X-100, 50 mM Hepes, 10 mM NaCl, 2.5 mM MgCl2, 2 mM EDTA, 10% glycerol, 1 mM PMSF, supplemented with Complete Mini Protease Inhibitor Cocktail Tablets (Roche). Protein quantification was performed using the BCA Protein Assay (Pierce). 25-50 μg of Triton X-100-soluble material were loaded on 2%-12% gradient SDS-PAGE before immunoblotting and chemiluminescence detection (SuperSignal West Pico Chemiluminescent Substrate, Pierce). Nuclear extraction was performed using the Nuclear Complex Co-IP kit (Active Motif). Rabbit polyclonal antibodies against ATF4 (CREB-2, C-20) and eIF2α (FL-315) were from Santa Cruz Biotechnology, as well as mouse monoclonal against GADD34 (C-19) and PKR (B-10). Rabbit polyclonal antibodies against P-eIF2α (Ser 51) and caspase-3 were from BioSource and Cell Signaling Technology respectively. Mouse monoclonal antibodies against β-actin and histone H1 were from SIGMA and Upstate respectively. Secondary antibodies were from Jackson ImmunoResearch Laboratories. Quantification of eIF2α phosphorylation was performed using the Multi Gauge software (Fujifilm).

MEFs and NIH3T3 = assay: Translation monitoring in MEFs and NIH3T3 exposed to poly I:C; assay type: cell-based, mouse; details: lipofected poly I:C, within 4 to 8 hours
Experimental: as §1
as §2, with “(SIGMA). […]” for “(SIGMA).”

caspase-3 = assay: Caspase-3 level and cleavage by immunoblot in DCs; assay type: cell-based, mouse
Experimental: (§4) […] Immature DCs were treated for the indicated time with 100 ng/ml LPS (SIGMA).
as §3

DCs [1] = assay: Stress granule formation in DCs (mRNA in situ hybridization, confocal microscopy); assay type: cell-based, mouse
DCs [2] = assay: mRNA quantification by real-time RT-PCR in poly I:C stimulated DCs; assay type: cell-based, mouse; details: qPCR
Experimental: as §2
Total RNA was isolated from DCs using the RNeasy miniprep kit (Qiagen). cDNA was synthesized from RNA samples using the Superscript II reverse transcriptase (Invitrogen). Quantitative real-time PCR was carried out in complete SYBR Green PCR buffer (PE Biosystem) by using 200 nM of each specific primer. A total of 20 μl of PCR mix was added to 5 μl of cDNA template, and the amplification was tracked via SYBR Green incorporation by using a Stratagene sequence detection system. cDNA concentration in each sample were normalized by using HPRT. A nontemplate control was also routinely performed. Primers used for gene amplification (designed with the Primer3 software) have been generated.

ATF4 = ATF4 protein immunoblot in nuclear extract of DCs; assay type: cell-based, mouse; details: poly I:C, 8 h
Experimental: as §2
Cells were lysed in 1% Triton X-100, 50 mM Hepes, 10 mM NaCl, 2.5 mM MgCl2, 2 mM EDTA, 10% glycerol, 1 mM PMSF, supplemented with Complete Mini Protease Inhibitor Cocktail Tablets (Roche). Protein quantification was performed using the BCA Protein Assay (Pierce). 25-50 μg of Triton X-100-soluble material were loaded on 2%-12% gradient SDS-PAGE before immunoblotting and chemiluminescence detection (SuperSignal West Pico Chemiluminescent Substrate, Pierce). Nuclear extraction was performed using the Nuclear Complex Co-IP kit (Active Motif). […] Quantification of eIF2α phosphorylation was performed using the Multi Gauge software (Fujifilm).

DCs [3] = assay: Translation intensity measurement by puromycin labelling in DCs; assay type: cell-based, mouse
Experimental: as §2, with “[…];” for “75 μM salubrinal (Calbiochem) or 100 nM tautomycin (Calbiochem) were added to DCs 4 h before harvesting;”
Puromycin labelling for measuring the intensity of translation was performed using 10 μg/ml puromycin (SIGMA, min 98% TLC, cell culture tested, P8833, diluted in PBS) was added in the culture medium and the cells were incubated for 10 min at 37° C. and 5% CO2. Where indicated, 25 μM cycloheximide (SIGMA) was added 5 min before puromycin. Cells were then harvested, centrifugated at 4° C. and washed with cold PBS prior to cell lysis and immunoblotting with the 12D10 antibody.
Cells were lysed in 1% Triton X-100, 50 mM Hepes, 10 mM NaCl, 2.5 mM MgCl2, 2 mM EDTA, 10% glycerol, 1 mM PMSF, supplemented with Complete Mini Protease Inhibitor Cocktail Tablets (Roche). Protein quantification was performed using the BCA Protein Assay (Pierce). […] Quantification of eIF2α phosphorylation was performed using the Multi Gauge software (Fujifilm).

IFN-β = IFN-β ELISA in culture supernatant of activated DCs; assay type: cell-based, mouse; details: poly I:C (or LPS) 8 h, salubrinal added 2 h before stimulation
Experimental: as §4
IFN-β quantification in culture supernatant of DCs (5 fold-diluted) was performed using the Mouse Interferon Beta ELISA kit (PBL InterferonSource) according to manufacturer instructions.

CHIKV = details: murine IFN-β added 3 h before infection, 10 MOI, GFP expression at 24 h

For CO[C@H]([C@H](O)CC(=O)[C@@H](C)[C@@H](O)CC[C@@H](C)[C@@H]1O[C@]2(CC[C@@H](C)[C@H](CC[C@H](C)C(C)=O)O2)CC[C@@H]1C)[C@H](OC(=O)C[C@@H](O)C1=C(C)C(=O)OC1=O)C(C)C [tautomycin], the “eIF2-α phosphorylation (same experiments as with salubrinal)” value (P-eIF2-α; DCs, 100 nM tautomycin 4 h before harvesting, with or without poly I:C) was “confirmed”.

With “polyinosinic:polycytidylic acid [poly I:C]” the “P-eIF2-α levels during poly I:C stimulation” value (P-eIF2-α; DCs, soluble poly I:C time course) was “gradually reduced”, the “Translation in MEFs (wt) and NIH3T3” value (MEFs and NIH3T3) was “efficiently induced PKR-dependent translation arrest” and the “Caspase-3 levels and cleavage, stimulus alone” value (caspase-3; DCs, 8 h, no salubrinal) was “little effect”. For the same molecule, the “Proportion of DCs bearing stress granules upon activation” value (DCs [1]; DCs activated with poly I:C or LPS, 500 μM sodium arsenite for the last 30 min) was 15%, the “ATF4 mRNA expression increase” value (DCs [2]; 10 μg/ml poly I:C) was 2 folds and the “CHOP mRNA expression increase” value (DCs [2]; 10 μg/ml poly I:C) was 8 folds. The “CReP mRNA expression” value (DCs [2]; poly I:C) was “induced only very modestly”, the “PP1 mRNA expression” value (DCs [2]; poly I:C) was “only modestly increased” and the “ATF4 translation (protein level)” value (ATF4) was “strongly up-regulated”. For the same molecule, the “Translation in DCs exposed to lipofected poly I:C” value (DCs [3]; after 8 hours of exposure) was “translation was not inhibited”.

With O=C(/C=C/c1ccccc1)NC(NC(=S)Nc1cccc2cccnc12)C(Cl)(Cl)Cl (centres unmarked) [salubrinal] the “IFN-β secretion by activated DCs” value (IFN-β) was “drastically reduced”, the “eIF2-α phosphorylation in presence of soluble poly I:C” value (P-eIF2-α) was “strongly accentuates eIF2-α phosphorylation” and the “eIF2-α phosphorylation in presence of soluble poly I:C” value (P-eIF2-α; listed as Salubrinal) was “considerably enhanced”. For the same molecule, the eIF2-α phosphorylation (P-eIF2-α; DCs, salubrinal alone, 75 μM, 4 h before harvesting) was “induced eIF2-α phosphorylation”, the “Caspase-3 levels and cleavage, salubrinal with poly I:C or LPS” value (caspase-3; DCs stimulated 8 h, salubrinal added 2 h before) was “lighter effect than salubrinal alone” and the “Total levels of caspase-3 and its cleaved active product” value (caspase-3; DCs, salubrinal treatment alone) was “massive increase”. For the same molecule, the “Protein synthesis in poly I:C stimulated DCs” value (DCs [3]; poly I:C 4 or 8 h, salubrinal added 2 h before stimulation) was “strongly reduced”.

sodium arsenite was tested, and the “Proportion of DCs bearing stress granules” value (DCs [1]) was roughly 100%.

B1: IFN-β: murine interferon-β added to MEFs before CHIKV infection (protein, UniProt P01575 22-182, looked up)
Interferon beta: INYKQLQLQERTNIRKCQELLEQLNGKINLTYRADFKIPMEMTEKMQKSYTAFAIQEMLQNVFLVFRNNFSSTGWNETIVVRLLDELHQQTVFLKTVLEEKQEERLTWEMSSTALHLKSYYWRVQRYLKLMKYNSYAWMVVRAEIFRNFLIIRRLTRNFQN
In the case of B1, the “CHIKV replication in WT and GADD34ΔC/ΔC MEFs” value (CHIKV) is reported as “abrogation of viral replication”.
